From publication PMC4055595, “Pharmacokinetic Compatibility of Ginsenosides and Schisandra Lignans in Shengmai-san: From the Perspective of P-Glycoprotein” (PLoS ONE, 2014) come the findings set out here.

SMILES strings stand for the structures. Where two headings read alike, the source gives them in different places.

One data set addresses P-gp (MDR1) (Homo sapiens, UniProt P08183). Nature of the data set: Transport of digoxin and ginsenosides across L-MDR1 cell monolayers (efflux ratio). Type of data set: in vitro ADME. The settings on record: human, read-out: Efflux ratio (Papp BL-AP / Papp AP-BL). Here is the method: (§1) LLC-PK1 cells, a cell line lacking P-gp, and the derived cell line L-MDR1, which over-express human MDR1-encoded P-gp, were grown in minimum essential medium with supplements at 37°C, 5% CO2, and 95% humidity. LLC-PK1 and L-MDR1 cells were seeded at a density of 12×10^6 cells per 150-cm^2 flask and grown for 7 days in medium 199 supplemented with 2 mM glutamine, 10% fetal bovine serum, 10 mg/500 mL of streptomycin, and 10,000 IU/500 mL of penicillin. To ensure a constant expression level of transport protein, L-MDR1 cells were grown in the presence of 640 nM vincristine. Cells were grown as monolayer on polycarbonate membrane filters (Transwell; Costar Corporation, Cambridge, MA) as outlined previously. Transepithelial resistance was measured in each well using a Millicell ERS ohmmeter (Millipore, Bedford, MA); wells registering a resistance of 200 ohms or greater, after correcting for the resistance obtained in control blank wells, were used in the transport experiments.
(§2) The LLC-PK1 and L-MDR1 cells were washed with warm Hank's balanced salt solution HBSS (pH 7.4) twice before transport experiment. HBSS containing verapamil (10 µM), SLE (2.0 and 10.0 µg/mL) or blank HBSS (control) was then loaded into both apical and basolateral chambers. After incubation at 37°C for 1.5 h, GE (100 µg/mL) was added to either the apical or basolateral side to evaluate the transport in absorptive and secretive directions, respectively. The cell monolayer was then incubated for another 2 h. Finally, the concentrations of ginsenosides were determined by LC/MS. All experiments were conducted in triplicate.
(§3) For the transport assay, the apparent permeability (P app, cm/s) in each direction (A→B and B→A) was calculated as follows, where A is the surface area of the membrane inserts (0.0804 cm^2), C 0 is the initial concentration of the compound applied in the donor compartment (2 µM), and △Q is the amount (micromoles) of compound transported over time △t (5 h = 18,000 s): [drawing 1]
(§4) The efflux ratio (ER) was a dimensionless number calculated as the ratio of the apparent permeability in the B→A direction divided by the apparent permeability in the A→B direction. [drawing 2]

For data set [1], the target named is human MDR1-encoded P-gp (L-MDR1 cells) (Homo sapiens, UniProt P08183). The description is as above. Type of data set: in vitro ADME. The settings on record: for Effect of verapamil on efflux ratio / Papp / Effect of SLE on efflux ratio / transport: L-MDR1 cells; for Effect of verapamil on efflux ratio / Papp: 10 µM verapamil; for Effect of SLE on efflux ratio / transport: SLE 2.0 and 10.0 µg/mL; for P-gp substrate classification: summary of transport/uptake in LLC-PK1, L-MDR1 and Caco-2 cells with verapamil. As to the method:
as §1, §2, §3, §4

Data set [2] has as its system LLC-PK1 cells (lacking P-gp). Nature of the data set: Uptake (intracellular accumulation) of digoxin and ginsenosides in LLC-PK1 cells. It counts as in vitro ADME. The settings on record: for Effect of verapamil on intracellular accumulation: 10 µM verapamil; for Effect of SLE on intracellular accumulation: SLE 2.0 and 10.0 µg/mL. Here is the method: as §1
LLC-PK1 and L-MDR1 cells were incubated with SLE (2.0 and 10.0 µg/mL) or verapamil (10 µM) for 1.0 h, and then were washed to discard SLE or verapamil before adding 100 µg/mL of GE. The accumulation of GE lasted for 2 h, and the intracellular concentrations of ginsenosides were measured by LC/MS. All experiments were conducted in triplicate.

The nature of data set [3]: Rat plasma pharmacokinetics after single-dose vehicle/SLE and digoxin or GE. Type of data set: in vivo, Sprague-Dawley rats. Conditions: rats; for half-life / AUC / Cmax / AUC(0-inf) / MRT inf / Tmax: female, Sprague-Dawley, rat, plasma, po; for half-life / AUC / Cmax / AUC(0-inf) / MRT inf / Tmax / Cl_F_obs / AUCINF_obs: 2 h later digoxin 0.5 mg/kg or GE 120 mg/kg ig; for half-life: read-out: t1/2 (converted); for AUC(0-inf): read-out: AUCINF_obs; for MRT inf: read-out: MRTINF_obs; for Tmax: read-out: Tmax; for Effect of SLE treatment on Cmax / Increase of AUC (AUC0-∞) by coadministration of SLE: single-dose SLE 500 mg/kg vs vehicle, GE ig. Here is the method: This study was carried out in strict accordance with the recommendations in the Guide for the Care and Use of Laboratory Animals of the National Institutes of Health. The protocol was approved by the Committee on the Ethics of Animal Experiments of the China Pharmaceutical University. All surgery was performed under sodium pentobarbital anesthesia, and all efforts were made to minimize suffering. Female healthy Sprague-Dawley rats (200±20 g) were purchased from the Laboratory Animal Center of Peking University Health Science Center (Beijing, PR China) and kept in an environmentally controlled breeding room for at least 3 days before experimentation. The rats were fed with standard laboratory food and water and fasted overnight but with free access to water before the test. To evaluate the effect of single treatment of SLE on the pharmacokinetics of ginsenosides, 24 rats were divided into four groups (group I ∼ group IV) averagely. […] In group II (control group): the rats received a single dose of vehicle (0.5% CMC-Na), and digoxin (0.5 mg/kg) was also given to the rats by intragastric administration. […] In group IV (control group): the rats received a single dose of vehicle (0.5% CMC-Na), and GE (120 mg/kg) was also given to the rats by gavage. […] Plasma was obtained by centrifugation at 5000 g for 10 min and stored at −20°C before analysis. The plasma / cell samples were extracted using a liquid–liquid extraction technique. To each tube containing 100 µL plasma, 10 µL internal standard (digoxin, 1.0 µg/mL) and 1.0 mL of n-butanol were added. The mixture was then vortex-extracted for 2 min, and centrifuged for 10 min at 10,000 g. […] The plasma concentration-time curves of ginsenosides in rats were obtained by plotting the mean plasma concentrations versus time. Pharmacokinetic parameters were calculated using the WinNonlin 6.3 program (Pharsight Inc., Mountain View, CA). The elimination half-life (t 1/2) value was calculated as 0.693/β, where β is the elimination rate constant calculated from the terminal linear portion of the log plasma concentration-time curve. The total areas under the plasma concentration- time curve from time 0 to the last quantifiable time point (AUC0-t) and from time 0 to infinity (AUC0-∞) were calculated using the log trapezoidal rule. [drawing 3] The maximum plasma concentrations (C max) for ginsenosides were obtained by visual inspection of the plasma concentration-time curve, whereas the initial drug concentration (the extrapolated concentration at zero time) of the drug after intravenous injection was calculated by back-extrapolation of the plasma concentration-time curve to the y-axis.

Setting [4] is: LLC-PK1, pH 7.4, L-MDR1 cells, control (absence of verapamil), GE 100 µg/mL, 2 h.
[5] abbreviates: LLC-PK1, pH 7.4, with verapamil 10 µM, L-MDR1 cells, presence of 10 µM verapamil.
[6] abbreviates: control: single vehicle (0.5% sodium CMC).

P-gp (MDR1), sequence (P08183 whole entry): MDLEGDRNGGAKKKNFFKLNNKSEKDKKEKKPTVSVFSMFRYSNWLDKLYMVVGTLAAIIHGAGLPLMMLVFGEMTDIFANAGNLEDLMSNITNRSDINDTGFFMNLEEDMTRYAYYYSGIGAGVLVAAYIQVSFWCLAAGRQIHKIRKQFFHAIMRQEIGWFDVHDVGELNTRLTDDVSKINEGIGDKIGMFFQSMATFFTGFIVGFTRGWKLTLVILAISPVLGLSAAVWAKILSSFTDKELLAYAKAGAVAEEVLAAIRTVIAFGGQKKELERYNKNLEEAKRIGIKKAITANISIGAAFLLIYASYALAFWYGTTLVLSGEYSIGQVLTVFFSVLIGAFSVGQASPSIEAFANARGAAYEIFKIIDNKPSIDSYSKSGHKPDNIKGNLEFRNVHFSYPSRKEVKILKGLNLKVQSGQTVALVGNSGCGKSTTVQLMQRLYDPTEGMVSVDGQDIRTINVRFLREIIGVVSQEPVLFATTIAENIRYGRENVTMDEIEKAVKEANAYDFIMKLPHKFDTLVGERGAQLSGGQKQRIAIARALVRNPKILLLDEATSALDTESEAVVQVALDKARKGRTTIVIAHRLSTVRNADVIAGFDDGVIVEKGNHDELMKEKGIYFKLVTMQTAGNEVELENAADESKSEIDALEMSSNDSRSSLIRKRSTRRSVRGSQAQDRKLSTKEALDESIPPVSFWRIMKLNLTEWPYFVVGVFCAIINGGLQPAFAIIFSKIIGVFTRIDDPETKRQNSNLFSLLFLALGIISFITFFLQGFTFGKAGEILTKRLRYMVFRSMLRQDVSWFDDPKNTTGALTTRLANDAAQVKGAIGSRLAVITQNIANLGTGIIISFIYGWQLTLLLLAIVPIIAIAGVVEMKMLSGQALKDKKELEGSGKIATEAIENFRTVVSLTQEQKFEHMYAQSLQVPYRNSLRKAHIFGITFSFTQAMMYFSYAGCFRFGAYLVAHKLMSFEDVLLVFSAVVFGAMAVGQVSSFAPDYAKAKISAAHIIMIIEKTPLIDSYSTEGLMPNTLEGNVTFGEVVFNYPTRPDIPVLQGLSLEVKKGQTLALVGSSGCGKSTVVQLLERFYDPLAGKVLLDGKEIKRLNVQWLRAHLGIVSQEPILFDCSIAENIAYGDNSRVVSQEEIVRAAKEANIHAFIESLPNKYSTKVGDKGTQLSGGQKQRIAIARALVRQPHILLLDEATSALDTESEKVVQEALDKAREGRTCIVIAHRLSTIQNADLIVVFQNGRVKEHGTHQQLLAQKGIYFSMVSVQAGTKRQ
human MDR1-encoded P-gp (L-MDR1 cells), sequence (P08183 whole entry): as above

Consider `C[C@H]1O[C@@H](O[C@H]2[C@@H](O)C[C@H](O[C@H]3[C@@H](O)C[C@H](O[C@H]4CC[C@@]5(C)[C@H](CC[C@@H]6[C@@H]5C[C@@H](O)[C@]5(C)[C@@H](C7=CC(=O)OC7)CC[C@]65O)C4)O[C@@H]3C)O[C@@H]2C)C[C@H](O)[C@@H]1O` [Digoxin, digoxin, reference compound], for which the efflux ratio at 2 h, 100 µg/mL at P-gp (MDR1) (setting [4]) stood at 26.2. Further, the efflux ratio at 2 h, 100 µg/mL at P-gp (MDR1) (setting [5]) stood at 8.23. Moreover, in data set [1], the “Effect of verapamil on efflux ratio / Papp” value is “significantly decrease of ER” and the “Effect of SLE on efflux ratio / transport” value is “significantly decreased”. Also, in data set [2], the “Effect of verapamil on intracellular accumulation” value is recorded as “no significant difference” and the “Effect of SLE on intracellular accumulation” value is recorded as “no significant difference”. In data set [3] (setting [6]), the half-life is 3.08 ± 1.23 h. Moreover, in data set [3] (control: single vehicle), the AUC (as a rule, concentration integrated over time) worked out at 0.0618 ± 0.0134 µg·h/mL; the peak level (Cmax) was 0.015 ± 0.00507 µg/mL; the AUC(0-inf) was found to be 0.0675 ± 0.0134 µg·h/mL; the MRT inf is 5.15 ± 1.09 h. In data set [3] (control: single vehicle), the Tmax (usually the time at which the peak concentration occurs) worked out at 1.28 ± 0.36 h and the Cl_F_obs stood at 7.66 ± 1.53 L/h. Moreover, in data set [3] (single SLE 500 mg/kg ig), the AUC was found to be 0.0844 ± 0.00725 µg·h/mL, the peak concentration (Cmax) (usually the peak of the concentration-time curve) came to 0.0175 ± 0.00226 µg/mL, the AUC(0-inf) came to 0.091 ± 0.00839 µg·h/mL and the MRT inf worked out at 5.06 ± 0.42 h. Further, in data set [3] (single SLE 500 mg/kg ig), the Tmax was determined as 1.58 ± 0.38 h, the half-life is 2.98 ± 0.36 h and the Cl_F_obs was found to be 5.53 ± 0.48 L/h.
Regarding `CC(C)=CCC[C@](C)(O[C@@H]1O[C@H](CO[C@@H]2O[C@H](CO)[C@@H](O)[C@H](O)[C@H]2O)[C@@H](O)[C@H](O)[C@H]1O)[C@H]1CC[C@]2(C)[C@@H]1[C@H](O)C[C@@H]1[C@@]3(C)CC[C@H](O[C@@H]4O[C@H](CO)[C@@H](O)[C@H](O)[C@H]4O[C@@H]4O[C@H](CO)[C@@H](O)[C@H](O)[C@H]4O)C(C)(C)[C@@H]3CC[C@]12C` [Rb1, ginsenoside Rb1], the efflux ratio at 2 h, 100 µg/mL at P-gp (MDR1) (setting [4]) was above 3.5. In addition, the efflux ratio at 2 h, 100 µg/mL on P-gp (MDR1) (setting [5]) was found to be 1.57. In data set [1], the “Effect of verapamil on efflux ratio / Papp” value is given as “significantly decrease of ER”, the “Effect of SLE on efflux ratio / transport” value is “significantly decreased” and the P-gp substrate classification result is listed as “moderate P-gp substrates”. Besides, in data set [2], the “Effect of verapamil on intracellular accumulation” value is recorded as “no significant difference” and the “Effect of SLE on intracellular accumulation” value is reported as “no significant difference”. Moreover, the half-life in data set [3] (setting [6]) is 13.3 ± 2.43 h. Besides, in data set [3] (control: single vehicle), the AUC was 14.3 ± 2.38 µg·h/mL, the Cmax is 0.491 ± 0.0614 µg/mL, the AUC(0-inf) amounted to 14.4 ± 2.47 µg·h/mL and the MRT inf stood at 23.1 ± 4.31 h. Besides, in data set [3] (control: single vehicle), the time of peak concentration (Tmax) was found to be 7.5 ± 1 h and the Cl_F_obs worked out at 0.007 ± 0.001 L/h. Moreover, in data set [3] (single SLE 500 mg/kg ig), the area under the curve (AUC) worked out at 18.5 ± 5.78 µg·h/mL, the peak level (Cmax) was 0.651 ± 0.127 µg/mL, the AUC(0-inf) was 18.5 ± 5.73 µg·h/mL and the MRT inf worked out at 23.5 ± 2.68 h. In data set [3] (single SLE 500 mg/kg ig), the Tmax turned out to be 11 ± 2 h, the half-life was 11.3 ± 2.74 h and the Cl_F_obs is 0.006 ± 0.002 L/h. In data set [3], the “Effect of SLE treatment on Cmax” value is reported as “significantly enhanced” and the “Increase of AUC (AUC0-∞) by coadministration of SLE” value is on record as 1.29 fold.
As for `CC(C)=CCC[C@](C)(O[C@@H]1O[C@H](CO[C@@H]2OC[C@H](O)[C@H](O)[C@H]2O)[C@@H](O)[C@H](O)[C@H]1O)[C@H]1CC[C@]2(C)[C@@H]1[C@H](O)C[C@@H]1[C@@]3(C)CC[C@H](O[C@@H]4O[C@H](CO)[C@@H](O)[C@H](O)[C@H]4O[C@@H]4O[C@H](CO)[C@@H](O)[C@H](O)[C@H]4O)C(C)(C)[C@@H]3CC[C@]12C` [Rb2, ginsenoside Rb2], the P-gp substrate classification entry in data set [1] is reported as “moderate P-gp substrates”. Moreover, in data set [2], the “Effect of verapamil on intracellular accumulation” value is “no significant difference” and the “Effect of SLE on intracellular accumulation” value was “no significant difference”. Further, the half-life in data set [3] (setting [6]) was 19.4 ± 2.87 h. Moreover, in data set [3] (control: single vehicle), the area under the curve (AUC) was found to be 10.2 ± 1.71 µg·h/mL, the peak level (Cmax) was 0.33 ± 0.0709 µg/mL, the AUC(0-inf) came out at 10.6 ± 1.73 µg·h/mL and the MRT inf was 27.9 ± 4.2 h. In data set [3] (control: single vehicle), the Tmax came to 7 ± 2 h, the AUCINF_obs turned out to be 10.551 ± 1.728 µg·h/mL and the Cl_F_obs was 0.012 ± 0.003 L/h. Besides, in data set [3] (single SLE 500 mg/kg ig), the AUC is 22.3 ± 5.27 µg·h/mL, the Cmax is 0.541 ± 0.045 µg/mL, the AUC(0-inf) is 23.2 ± 5.57 µg·h/mL and the MRT inf turned out to be 25.2 ± 3.63 h. In addition, in data set [3] (single SLE 500 mg/kg ig), the Tmax was 9.5 ± 3 h, the half-life is 19 ± 3.84 h, the AUCINF_obs worked out at 23.198 ± 5.566 µg·h/mL and the Cl_F_obs was found to be 0.004 ± 0.001 L/h. Also, in data set [3], the “Effect of SLE treatment on Cmax” value is on record as “significantly enhanced” and the “Increase of AUC (AUC0-∞) by coadministration of SLE” value is 2.18 fold.
